Results published in PubChem BioAssay AID1918945 (Molecular Pharmacology Branch, DTP, NCI, 2023).
pIC50: −log10 of the molar value. Several values for one entry are separate records, joined by “and”; a condition that tells them apart may be missing. Identical values can stand only once.

Test system: 883617-216-R-J1-PDC complex spheroid viability
Assay: Anticancer human tumor 883617-216-R-J1-PDC patient-derived bladder carcinoma cell line growth inhibition
Details: for viability, T/C: stronger effect = lower value; for pIC50: curve of first compound
How it was run: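 Multicellular complex spheroids of tumor cells with human endothelial cells (HUVEC) and mesenchymal stem cells; the LSD1 inhibitor iadademstat was combined with standard-of-care or investigational agents. Top concentration at or near clinical Cmax, half-log dilutions; final DMSO ≤0.25%.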

[1] = second compound 0.1 µM, first compound 0.000949 µM
[2] = second compound 0.1 µM, first compound 0.003 µM
[3] = second compound 0.1 µM, first compound 0.00949 µM
[4] = second compound 0.1 µM, first compound 0.03 µM
[5] = second compound 0.1 µM, first compound 0.0949 µM
[6] = second compound 0.1 µM, first compound 0.3 µM
[7] = second compound 0.316 µM, first compound 0.000949 µM
[8] = second compound 0.316 µM, first compound 0.003 µM
[9] = second compound 0.316 µM, first compound 0.00949 µM
[10] = second compound 0.316 µM, first compound 0.03 µM
[11] = second compound 0.316 µM, first compound 0.0949 µM
[12] = second compound 0.316 µM, first compound 0.3 µM
[13] = second compound 1 µM, first compound 0.000949 µM
[14] = second compound 1 µM, first compound 0.003 µM
[15] = second compound 1 µM, first compound 0.00949 µM
[16] = second compound 1 µM, first compound 0.03 µM
[17] = second compound 1 µM, first compound 0.0949 µM
[18] = second compound 1 µM, first compound 0.3 µM
[19] = second compound 3.16 µM, first compound 0.000949 µM
[20] = second compound 3.16 µM, first compound 0.003 µM
[21] = second compound 3.16 µM, first compound 0.00949 µM
[22] = second compound 3.16 µM, first compound 0.03 µM
[23] = second compound 3.16 µM, first compound 0.0949 µM
[24] = second compound 3.16 µM, first compound 0.3 µM
[25] = second compound 10 µM, first compound 0.000949 µM
[26] = second compound 10 µM, first compound 0.003 µM
[27] = second compound 10 µM, first compound 0.00949 µM
[28] = second compound 10 µM, first compound 0.03 µM
[29] = second compound 10 µM, first compound 0.0949 µM
[30] = second compound 10 µM, first compound 0.3 µM
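Note: exposure lasted seven days after three days of spheroid growth.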
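Throughout, for viability, T/C: 100% = DMSO vehicle control luminescence.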

## Nc1ncn(C2CC(O)C(CO)S2)c(=O)n1 (stereo unspecified)
Compound 0.000949 µM
  viability, T/C: 108% and 85.9%
Compound 0.003 µM
  viability, T/C: 105% and 77%
Compound 0.00949 µM
  viability, T/C: 87.3% and 55.7%
Compound 0.03 µM
  viability, T/C: 69% and 39.4%
Compound 0.0949 µM
  viability, T/C: 58% and 34.1%
Compound 0.3 µM
  viability, T/C: 44% and 27.4%

## Nc1ncn(C2CC(O)C(CO)S2)c(=O)n1 (stereo unspecified) + NC1CC1c1ccc(-c2cccc(O)c2)cc1
Second compound 0.1 µM
  pIC50: 7.56
Second compound 0.316 µM
  pIC50: 7.39
Second compound 1 µM
  pIC50: 7.47
Second compound 3.16 µM
  pIC50: 7.61
Second compound 10 µM
  pIC50: 7.73
[1]
  viability, T/C: 115%
[2]
  viability, T/C: 97.1%
[3]
  viability, T/C: 67.2%
[4]
  viability, T/C: 49.5%
[5]
  viability, T/C: 37.6%
[6]
  viability, T/C: 29.5%
[7]
  viability, T/C: 119%
[8]
  viability, T/C: 89.5%
[9]
  viability, T/C: 77.9%
[10]
  viability, T/C: 51.3%
[11]
  viability, T/C: 38.1%
[12]
  viability, T/C: 30.5%
[13]
  viability, T/C: 106%
[14]
  viability, T/C: 101%
[15]
  viability, T/C: 64%
[16]
  viability, T/C: 57.5%
[17]
  viability, T/C: 36%
[18]
  viability, T/C: 29.4%
[19]
  viability, T/C: 92.8%
[20]
  viability, T/C: 95.8%
[21]
  viability, T/C: 64.2%
[22]
  viability, T/C: 47.1%
[23]
  viability, T/C: 38.7%
[24]
  viability, T/C: 26.3%
[25]
  viability, T/C: 78.4%
[26]
  viability, T/C: 76.7%
[27]
  viability, T/C: 56.7%
[28]
  viability, T/C: 45%
[29]
  viability, T/C: 36.6%
[30]
  viability, T/C: 33.1%

## CCN(c1cc(-c2ccc(CN3CCOCC3)cc2)cc(C(=O)NCc2c(C)cc(C)[nH]c2=O)c1C)C1CCOCC1 + NC1CC1c1ccc(-c2cccc(O)c2)cc1
Second compound 0.1 µM
  pIC50: < 5.52
Second compound 0.316 µM
  pIC50: < 5.52
Second compound 1 µM
  pIC50: < 5.52
Second compound 3.16 µM
  pIC50: < 5.52
Second compound 10 µM
  pIC50: < 5.52
[3]
  viability, T/C: 86.5%
[4]
  viability, T/C: 84.8%
[5]
  viability, T/C: 81.9%
[6]
  viability, T/C: 73.5%
Second compound 0.1 µM, first compound 0.949 µM
  viability, T/C: 79.4%
Second compound 0.1 µM, first compound 3 µM
  viability, T/C: 66.9%
[9]
  viability, T/C: 96.8%
[10]
  viability, T/C: 92.2%
[11]
  viability, T/C: 83.4%
[12]
  viability, T/C: 89.9%
Second compound 0.316 µM, first compound 0.949 µM
  viability, T/C: 86%
Second compound 0.316 µM, first compound 3 µM
  viability, T/C: 70%
[15]
  viability, T/C: 105%
[16]
  viability, T/C: 93%
[17]
  viability, T/C: 88.2%
[18]
  viability, T/C: 91.5%
Second compound 1 µM, first compound 0.949 µM
  viability, T/C: 88.6%
Second compound 1 µM, first compound 3 µM
  viability, T/C: 79.2%
[21]
  viability, T/C: 99.7%
[22]
  viability, T/C: 83.3%
[23]
  viability, T/C: 73.8%
[24]
  viability, T/C: 83.2%
Second compound 3.16 µM, first compound 0.949 µM
  viability, T/C: 88.6%
Second compound 3.16 µM, first compound 3 µM
  viability, T/C: 78.5%
[27]
  viability, T/C: 78.4%
[28]
  viability, T/C: 72.9%
[29]
  viability, T/C: 69.2%
[30]
  viability, T/C: 63%
Second compound 10 µM, first compound 0.949 µM
  viability, T/C: 71.1%
Second compound 10 µM, first compound 3 µM
  viability, T/C: 61.1%

## Nc1ccn(C2OC(CO)C(O)C2(F)F)c(=O)n1 (stereo unspecified) + NC1CC1c1ccc(-c2cccc(O)c2)cc1
Second compound 0.1 µM
  pIC50: > 9.02
Second compound 0.316 µM
  pIC50: > 9.02
Second compound 1 µM
  pIC50: > 9.02
Second compound 3.16 µM
  pIC50: > 9.02
Second compound 10 µM
  pIC50: > 9.02
[1]
  viability, T/C: 19.4%
[2]
  viability, T/C: 23.2%
[3]
  viability, T/C: 21.9%
[4]
  viability, T/C: 22.2%
[5]
  viability, T/C: 23.6%
[6]
  viability, T/C: 24.9%
[7]
  viability, T/C: 19.8%
[8]
  viability, T/C: 20.6%
[9]
  viability, T/C: 22.8%
[10]
  viability, T/C: 21%
[11]
  viability, T/C: 23.2%
[12]
  viability, T/C: 23%
[13]
  viability, T/C: 22%
[14]
  viability, T/C: 20.8%
[15]
  viability, T/C: 23.4%
[16]
  viability, T/C: 21.5%
[17]
  viability, T/C: 21.1%
[18]
  viability, T/C: 24.4%
[19]
  viability, T/C: 21.9%
[20]
  viability, T/C: 20.8%
[21]
  viability, T/C: 20.6%
[22]
  viability, T/C: 25.6%
[23]
  viability, T/C: 21%
[24]
  viability, T/C: 20.9%
[25]
  viability, T/C: 29.5%
[26]
  viability, T/C: 27.2%
[27]
  viability, T/C: 24.9%
[28]
  viability, T/C: 24.3%
[29]
  viability, T/C: 23.3%
[30]
  viability, T/C: 21.6%

## CC(C)c1c(-c2ccccc2)nc2c(C#N)c[nH]n2c1=O + NC1CC1c1ccc(-c2cccc(O)c2)cc1
Second compound 0.1 µM
  pIC50: < 5.00
Second compound 0.316 µM
  pIC50: < 5.00
Second compound 1 µM
  pIC50: < 5.00
Second compound 3.16 µM
  pIC50: < 5.00
Second compound 10 µM
  pIC50: < 5.00
Second compound 0.1 µM, first compound 0.0316 µM
  viability, T/C: 110%
Second compound 0.1 µM, first compound 0.1 µM
  viability, T/C: 118%
Second compound 0.1 µM, first compound 0.316 µM
  viability, T/C: 119%
Second compound 0.1 µM, first compound 1 µM
  viability, T/C: 109%
Second compound 0.1 µM, first compound 3.16 µM
  viability, T/C: 113%
Second compound 0.1 µM, first compound 10 µM
  viability, T/C: 96%
Second compound 0.316 µM, first compound 0.0316 µM
  viability, T/C: 114%
Second compound 0.316 µM, first compound 0.1 µM
  viability, T/C: 126%
Second compound 0.316 µM, first compound 0.316 µM
  viability, T/C: 122%
Second compound 0.316 µM, first compound 1 µM
  viability, T/C: 122%
Second compound 0.316 µM, first compound 3.16 µM
  viability, T/C: 94.8%
Second compound 0.316 µM, first compound 10 µM
  viability, T/C: 108%
Second compound 1 µM, first compound 0.0316 µM
  viability, T/C: 132%
Second compound 1 µM, first compound 0.1 µM
  viability, T/C: 119%
Second compound 1 µM, first compound 0.316 µM
  viability, T/C: 116%
Second compound 1 µM, first compound 1 µM
  viability, T/C: 117%
Second compound 1 µM, first compound 3.16 µM
  viability, T/C: 102%
Second compound 1 µM, first compound 10 µM
  viability, T/C: 109%
Second compound 3.16 µM, first compound 0.0316 µM
  viability, T/C: 124%
Second compound 3.16 µM, first compound 0.1 µM
  viability, T/C: 117%
Second compound 3.16 µM, first compound 0.316 µM
  viability, T/C: 105%
Second compound 3.16 µM, first compound 1 µM
  viability, T/C: 104%
Second compound 3.16 µM, first compound 3.16 µM
  viability, T/C: 100%
Second compound 3.16 µM, first compound 10 µM
  viability, T/C: 94.4%
Second compound 10 µM, first compound 0.0316 µM
  viability, T/C: 100%
Second compound 10 µM, first compound 0.1 µM
  viability, T/C: 93.2%
Second compound 10 µM, first compound 0.316 µM
  viability, T/C: 79.8%
Second compound 10 µM, first compound 1 µM
  viability, T/C: 89.9%
Second compound 10 µM, first compound 3.16 µM
  viability, T/C: 96.2%
Second compound 10 µM, first compound 10 µM
  viability, T/C: 85.3%
